The values that follow come from US6898533B1, “Methods for predicting the biological, chemical, and physical properties of molecules from their spectral properties” (The United States of America as represented by the …, priority 2000, dated 2005).

Assay [1] relates to estrogen receptor. Kind of assay: estrogen receptor relative binding affinity, expanded training set of 107 compounds. As to conditions: input class, 107-compound training set. The text has this: The training set included weak estrogen receptor binders in addition to strong and medium estrogen receptor binders.
For this model, strong estrogen receptor binders were defined as having log(RBA)>−0.25 and weak estrogen receptor binders were defined as having log(RBA)<−3.0. Medium estrogen receptor binders were defined as having log(RBA) in between.

Assay [2] deals with estrogen receptor. The following applies: 107-compound training set; cited from earlier work.

For the compound 4,4′-Methylenebis (N,N-dimethyl), in the assay with estrogen receptor [1], the Class result is “W (weak estrogen receptor binders were defined as having log(RBA)<−3.0)”.

Take `C(C=Cc1ccccc1)=Cc1ccccc1` [1,4-Diphenyl-1,3-butadiene]: the Class result in the assay with estrogen receptor [1] is recorded as “W (weak estrogen receptor binders were defined as having log(RBA)<−3.0)”.

Take `OCCCCCCCCO` [1,8-Octanediol]: the Class entry in the assay on estrogen receptor [1] is reported as “W (weak estrogen receptor binders were defined as having log(RBA)<−3.0)”.

`COc1ccc(C(=O)c2ccccc2O)c(O)c1` [2,2′-Dihydroxy4-methoxybenzophene]: in the assay with estrogen receptor [1], the Class entry was “W (weak estrogen receptor binders were defined as having log(RBA)<−3.0)”.

Take `Oc1ccc(Cl)cc1Cc1cc(Cl)ccc1O` [2,2′-Methylenebis (4-chlorophenol)]: the Class result in the assay on estrogen receptor [1] is recorded as “M (Medium estrogen receptor binders were defined as having log(RBA) in between)”. Further, the “log RBA” value with estrogen receptor [2] is reported as −2.45.

Turning to `O=C(O)COc1cc(Cl)c(Cl)cc1Cl` [2,4,5-T], the Class result in the assay on estrogen receptor [1] is “W (weak estrogen receptor binders were defined as having log(RBA)<−3.0)”.

With `O=C(c1ccccc1)c1ccc(O)cc1O` [2,4-Dihydroxybenzophenone], the Class result in the assay on estrogen receptor [1] is on record as “W (weak estrogen receptor binders were defined as having log(RBA)<−3.0)”. Besides, the “log RBA” value in the assay on estrogen receptor [2] is −2.61.

With `Oc1cccc(-c2ccccc2)c1` [3-Phenylphenol], in the assay with estrogen receptor [2], the “log RBA” value is listed as −3.44.

As to `O=C(c1ccc(O)cc1)c1ccc(O)cc1` [4,4′-Dihydroxybenzophenone], the Class result with estrogen receptor [1] is listed as “M (Medium estrogen receptor binders were defined as having log(RBA) in between)”. In the assay on estrogen receptor [2], the “log RBA” value is −2.46.

For `CC(C)(C)c1cc(Cc2cc(C(C)(C)C)c(O)c(C(C)(C)C)c2)cc(C(C)(C)C)c1O` [4,4′-Methylene(2,6-ditertbutylphenol)], in the assay on estrogen receptor [1], the Class entry was “W (weak estrogen receptor binders were defined as having log(RBA)<−3.0)”.

Consider `O=S(=O)(c1ccc(O)cc1)c1ccc(O)cc1` [4,4′-Sulfonylphenol], for which the Class result in the assay with estrogen receptor [1] is “W (weak estrogen receptor binders were defined as having log(RBA)<−3.0)”. Further, the “log RBA” value in the assay on estrogen receptor [2] is reported as −3.07.

For `Cc1cc(O)ccc1Cl` [4-Chloro-3-methylphenol], the “log RBA” value with estrogen receptor [2] is reported as −3.38.

On to `Oc1ccc(-c2ccccc2)cc1` [4-Phenylphenol], for which the “log RBA” value with estrogen receptor [2] is on record as −3.04.

For the compound `CCC(C)(C)c1ccc(O)cc1` [4-tert-Amylphenol], the “log RBA” value in the assay on estrogen receptor [2] is recorded as −3.26.

In the case of `CC(C)(C)c1ccc(O)cc1` [4-tert-Butylphenol], in the assay on estrogen receptor [2], the “log RBA” value is given as −3.61.

For the compound `C[C@]12CC[C@@H]3c4ccc(O)cc4CC[C@H]3[C@@H]1CC[C@@H]2O` [17β-Estradiol], in the assay with estrogen receptor [1], the Class entry is “S (strong estrogen receptor binders were defined as having log(RBA)>−0.25)”.

With `CCCCC(CC)COC(=O)c1ccccc1C(=O)OCC(CC)CCCC` (stereo not drawn) [BIS (2-ethylhexyl) phthalate], in the assay with estrogen receptor [1], the Class entry was “W (weak estrogen receptor binders were defined as having log(RBA)<−3.0)”.

Take `Oc1ccccc1Cc1ccccc1O` [BIS (2-hydroxyphenyl)-methane]: in the assay on estrogen receptor [1], the Class entry is “W (weak estrogen receptor binders were defined as having log(RBA)<−3.0)”.

Take `OCc1ccccc1` [Benzylalcohol]: in the assay with estrogen receptor [1], the Class result was “W (weak estrogen receptor binders were defined as having log(RBA)<−3.0)”.

As for `CCCCOC(=O)c1ccc(N)cc1` [Butyl-4-aminobenzoate], the Class result in the assay with estrogen receptor [1] is listed as “W (weak estrogen receptor binders were defined as having log(RBA)<−3.0)”.

For the compound `CC(C)CCC[C@@H](C)[C@H]1CC[C@H]2[C@@H]3CC=C4C[C@@H](O)CC[C@]4(C)[C@H]3CC[C@]12C` [Cholesterol], the Class result in the assay with estrogen receptor [1] is “W (weak estrogen receptor binders were defined as having log(RBA)<−3.0)”.

For the compound `CC12CCC(CC1)C(C)(C)O2` [Cineole], the Class entry in the assay with estrogen receptor [1] is “W (weak estrogen receptor binders were defined as having log(RBA)<−3.0)”.

On to `O=C(O)C=Cc1ccccc1` [Cinnamic acid], for which the Class entry in the assay on estrogen receptor [1] is on record as “W (weak estrogen receptor binders were defined as having log(RBA)<−3.0)”.

For `Oc1ccc(C=Cc2ccccc2)cc1` [Compound 4-Stilbenol, 4-Stilbenol], in the assay with estrogen receptor [1], the Class result was “W (weak estrogen receptor binders were defined as having log(RBA)<−3.0)”.

For `C[C@]12C[C@H](O)[C@H]3[C@@H](CCC4=CC(=O)CC[C@@]43C)[C@@H]1CC[C@@H]2C(=O)CO` [Corticosterone], in the assay on estrogen receptor [1], the Class entry is on record as “W (weak estrogen receptor binders were defined as having log(RBA)<−3.0)”.

For the compound `Clc1ccc(C(c2ccccc2Cl)C(Cl)Cl)cc1` (stereo not drawn) [DDD-o,p′], in the assay on estrogen receptor [1], the Class entry was “W (weak estrogen receptor binders were defined as having log(RBA)<−3.0)”.

As to `Clc1ccc(C(c2ccc(Cl)cc2)C(Cl)Cl)cc1` [DDD-p,p′], the Class result with estrogen receptor [1] is on record as “W (weak estrogen receptor binders were defined as having log(RBA)<−3.0)”.

On to `ClC(Cl)=C(c1ccc(Cl)cc1)c1ccc(Cl)cc1` [DDE-p,p′], for which the Class entry with estrogen receptor [1] is “W (weak estrogen receptor binders were defined as having log(RBA)<−3.0)”.

Regarding `Clc1ccc(C(c2ccc(Cl)cc2)C(Cl)(Cl)Cl)cc1` [DDT-p,p′], in the assay on estrogen receptor [1], the Class result is “W (weak estrogen receptor binders were defined as having log(RBA)<−3.0)”.

For `O=c1c(-c2ccc(O)cc2)coc2cc(O)ccc12` [Daidzein], the Class entry in the assay with estrogen receptor [1] is given as “M (Medium estrogen receptor binders were defined as having log(RBA) in between)”.

Turning to `CCCCOC(=O)c1ccccc1C(=O)OCCCC` [Dibutyl phthalate], in the assay on estrogen receptor [1], the Class result is “W (weak estrogen receptor binders were defined as having log(RBA)<−3.0)”.

As for `CCOC(=O)c1ccccc1C(=O)OCC` [Diethyl phthalate], in the assay with estrogen receptor [1], the Class entry is reported as “W (weak estrogen receptor binders were defined as having log(RBA)<−3.0)”.

With `NCCc1ccc(O)c(O)c1` [Dopamine], the Class entry in the assay on estrogen receptor [1] is reported as “W (weak estrogen receptor binders were defined as having log(RBA)<−3.0)”.

On to `CCOC(=O)C=Cc1ccccc1` [Ethylcinnamate], for which the Class result in the assay on estrogen receptor [1] was “W (weak estrogen receptor binders were defined as having log(RBA)<−3.0)”.

For the compound `C#C[C@]1(O)CC[C@H]2[C@@H]3CCc4cc(O)ccc4[C@H]3CC[C@@]21C` [Ethynyl estradiol], the Class result in the assay with estrogen receptor [1] is “S (strong estrogen receptor binders were defined as having log(RBA)>−0.25)”.

As for `C[C@]12CCC(=O)C[C@H]1CC[C@@H]1[C@@H]2CC[C@]2(C)[C@@H](O)CC[C@@H]12` [Etiocholan-17β-ol-3-one], the Class entry in the assay with estrogen receptor [1] is “W (weak estrogen receptor binders were defined as having log(RBA)<−3.0)”.

Regarding `C=CCc1ccc(O)c(OC)c1` [Eugenol], the Class entry in the assay with estrogen receptor [1] is recorded as “W (weak estrogen receptor binders were defined as having log(RBA)<−3.0)”.

For `CCCCCCC=O` [Heptanal], the Class result with estrogen receptor [1] is “W (weak estrogen receptor binders were defined as having log(RBA)<−3.0)”.

Consider `COc1ccc([C@@H]2CC(=O)c3c(O)cc(O)cc3O2)cc1O` [Hesperetin], for which the Class result in the assay with estrogen receptor [1] is reported as “W (weak estrogen receptor binders were defined as having log(RBA)<−3.0)”.

For the compound `CCCCCCO` [Hexylalcohol], the Class result with estrogen receptor [1] was “W (weak estrogen receptor binders were defined as having log(RBA)<−3.0)”.

`CC=Cc1ccc(O)c(OC)c1` [Isoeugenol]: in the assay with estrogen receptor [1], the Class entry is “W (weak estrogen receptor binders were defined as having log(RBA)<−3.0)”.

For the compound `COc1ccc2[nH]cc(CCNC(C)=O)c2c1` [Melatonin], in the assay on estrogen receptor [1], the Class result is “W (weak estrogen receptor binders were defined as having log(RBA)<−3.0)”.

As for `O=P(Oc1ccccc1)(Oc1ccccc1)Oc1ccccc1` [Triphenylphosphate], the Class result with estrogen receptor [1] is given as “W (weak estrogen receptor binders were defined as having log(RBA)<−3.0)”.

Turning to `COc1cc(C=O)ccc1O` [Vanillin], in the assay with estrogen receptor [1], the Class entry is listed as “W (weak estrogen receptor binders were defined as having log(RBA)<−3.0)”.
